Measured values from US5110925A, “Pyridazinone derivatives” (Nippon Soda Co., Ltd., priority 1988, dated 1992).
In brackets after ≈: the same amount, converted by molar mass. Where two headings read alike, the source gives them in different places.

Key:
[1] = target: PDE-I; assay: Inhibition of Phosphodiesterase PDE-I; assay type: biochemical, guinea pig (left ventricular muscles); details: 1 mM 3H-cAMP substrate
Excerpt: (§1) The preparation of different forms of cyclic nucleotide phosphodiesterase from guinea pig left ventricular muscles was done by following the procedure of Weishaar, et al. (R. Weishaar, et al., Biochemical Pharmacology, 35, 787-800, 1986) with the minor modified method of Thompson, et al. (W. J. Thompson, et al., Advances in Cyclic Nucleotide Research, 10, 69-92, 1979). Briefly, the three active forms of phosphodiesterase (PDE-I, PDE-II, PDE-III) present in the ventricular muscles were discretely eluted from a DEAE-cellulose column (Whatman, DE-52, .phi. 2.5×20 cm) using a continuous 70-800 mM sodium acetate gradient.
(§2) The phosphodiesterase activity was assayed by minor modifications of the method described by Furutani et al. (Y. Furutani, et al., Journal of Antibiotics, 28, 558-560, 1975). Briefly, 1 mM ^3 H-cAMP was hydrolyzed by the phosphodiesterase and the unhydrolyzed ^3 H-cAMP which was separated from the formed 5'-AMP by a dry alumina (Merck, activity 1, neutral) was counted by a liquid scintillation counter.
(§3) The concentrations causing a 50% inhibition of the phosphodiesterase activity (IC50) were calculated from the concentration-inhibition curves.

[2] = target: T1, PDE-II (Cavia porcellus, UniProt A0A286XUV5); assay: Inhibition of Phosphodiesterase PDE-II; assay type: biochemical, guinea pig (left ventricular muscles); details: 1 mM 3H-cAMP substrate
T1 construct: different forms of cyclic nucleotide phosphodiesterase from guinea pig left ventricular muscles; from tissue; host or cells: guinea pig left ventricular muscle, DEAE-cellulose fraction
T1 sequence (A0A286XUV5 22-936): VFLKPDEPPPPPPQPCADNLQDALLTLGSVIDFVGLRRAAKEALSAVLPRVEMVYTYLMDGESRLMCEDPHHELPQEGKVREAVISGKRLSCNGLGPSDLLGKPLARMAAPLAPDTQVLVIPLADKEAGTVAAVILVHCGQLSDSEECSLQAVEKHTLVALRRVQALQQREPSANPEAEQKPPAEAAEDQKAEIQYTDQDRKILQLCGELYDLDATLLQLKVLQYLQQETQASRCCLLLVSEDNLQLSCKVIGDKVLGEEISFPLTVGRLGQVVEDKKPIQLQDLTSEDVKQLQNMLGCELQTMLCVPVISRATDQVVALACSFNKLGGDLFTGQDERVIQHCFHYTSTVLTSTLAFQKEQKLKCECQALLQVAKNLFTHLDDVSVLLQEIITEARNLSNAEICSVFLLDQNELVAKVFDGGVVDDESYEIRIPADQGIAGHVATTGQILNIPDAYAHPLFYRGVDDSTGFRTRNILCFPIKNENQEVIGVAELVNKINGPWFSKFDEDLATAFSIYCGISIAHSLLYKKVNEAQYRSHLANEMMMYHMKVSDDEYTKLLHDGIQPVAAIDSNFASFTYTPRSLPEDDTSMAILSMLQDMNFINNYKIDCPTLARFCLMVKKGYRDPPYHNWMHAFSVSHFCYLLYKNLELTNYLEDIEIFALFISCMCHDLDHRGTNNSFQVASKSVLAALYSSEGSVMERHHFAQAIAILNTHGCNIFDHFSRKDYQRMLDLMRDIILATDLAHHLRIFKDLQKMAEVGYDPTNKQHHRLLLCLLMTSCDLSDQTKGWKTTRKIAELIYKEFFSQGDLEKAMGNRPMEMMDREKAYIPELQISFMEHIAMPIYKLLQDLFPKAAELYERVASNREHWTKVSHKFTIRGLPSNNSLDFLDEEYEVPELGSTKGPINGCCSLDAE
Excerpt: as §1, §2, §3

[3] = target: T2, PDE-III (Cavia porcellus, UniProt H0VIU9); assay: Inhibition of Phosphodiesterase PDE-III; assay type: biochemical, guinea pig (left ventricular muscles)
T2 construct: different forms of cyclic nucleotide phosphodiesterase from guinea pig left ventricular muscles; from tissue; host or cells: guinea pig left ventricular muscle, DEAE-cellulose fraction
T2 sequence (H0VIU9 1-1132): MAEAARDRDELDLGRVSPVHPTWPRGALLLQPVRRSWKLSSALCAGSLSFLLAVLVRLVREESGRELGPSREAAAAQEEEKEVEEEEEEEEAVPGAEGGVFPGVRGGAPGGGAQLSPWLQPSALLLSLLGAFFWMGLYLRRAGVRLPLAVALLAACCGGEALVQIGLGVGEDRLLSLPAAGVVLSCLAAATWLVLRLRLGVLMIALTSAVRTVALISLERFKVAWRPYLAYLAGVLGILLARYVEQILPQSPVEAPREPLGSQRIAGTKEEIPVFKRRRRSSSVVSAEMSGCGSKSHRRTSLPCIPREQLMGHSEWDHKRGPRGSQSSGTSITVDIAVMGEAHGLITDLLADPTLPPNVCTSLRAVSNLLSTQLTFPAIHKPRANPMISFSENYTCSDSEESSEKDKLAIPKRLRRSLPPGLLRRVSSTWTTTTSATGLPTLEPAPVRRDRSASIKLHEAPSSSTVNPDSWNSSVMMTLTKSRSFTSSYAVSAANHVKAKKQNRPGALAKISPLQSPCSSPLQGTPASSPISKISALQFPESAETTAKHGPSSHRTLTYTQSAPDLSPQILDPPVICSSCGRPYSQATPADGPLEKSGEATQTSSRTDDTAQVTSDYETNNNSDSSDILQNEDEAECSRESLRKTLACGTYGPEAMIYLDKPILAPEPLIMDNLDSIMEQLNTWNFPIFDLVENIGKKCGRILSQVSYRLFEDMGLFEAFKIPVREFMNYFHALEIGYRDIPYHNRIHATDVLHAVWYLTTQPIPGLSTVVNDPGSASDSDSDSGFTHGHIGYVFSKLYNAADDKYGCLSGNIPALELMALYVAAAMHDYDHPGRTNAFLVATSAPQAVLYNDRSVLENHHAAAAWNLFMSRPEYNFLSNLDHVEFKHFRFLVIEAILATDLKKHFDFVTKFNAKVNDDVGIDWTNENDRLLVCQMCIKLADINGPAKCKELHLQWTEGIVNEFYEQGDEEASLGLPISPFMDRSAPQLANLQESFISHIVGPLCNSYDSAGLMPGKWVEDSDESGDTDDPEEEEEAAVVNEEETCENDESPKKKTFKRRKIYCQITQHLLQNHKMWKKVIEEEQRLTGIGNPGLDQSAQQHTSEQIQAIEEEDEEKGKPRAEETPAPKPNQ
Excerpt: as §1, §2, §3

[4] = test system: Anesthetized Dogs; assay: Cardiotonic Action: Anesthetized Dogs; assay type: in vivo, dog (adult mongrel); details: for ED50: Canis lupus familiaris, iv, read-out: LVdp/dtmax ED50; for % Changes in Heart rate / % Changes in Blood pressure: i.v.; for % Changes in Blood pressure: femoral arterial pressure
Protocol: Adult mongrel dogs of either sex weighing 8 to 15 kg were used.
The animals were anesthetized with sodium pentobarbital (30 mg/kg, i.v.) and maintained by an intravenous infusion of the anesthetic at a rate of 4 mg/kg per hour.
A cuffed endotracheal tube was inserted and an artificial respirator installed. The animals were ventilated with room air in a tidal volume of 20 ml/kg at a rate of 20 brearhs per minute.
Cannulae were inserted into the femoral vein for a falling drop of a physiological saline or for an infusion of the anesthetic, and into the femoral artery for measuring arterial blood pressure with a pressure transducer. Heart rate was recorded with a heart rate counter triggered by the R wave of the electrocardiogram (ECG).
ECG in standard lead II was monitored with a bioelectric amplifier.
Left ventricular pressure was measured with a catheter tip pressure transducer inserted via the right carotid artery into the left ventricle. Left ventricular dp/dtmax was obtained by an electric differentiator.
The compounds were injected through the cannula in the femoral vein at a dose of 0.001-0.3 mg/0.1 ml/kg.

[5] = test system: guinea pig left atria; assay: Cardiotonic Action: Electrically Stimulating Isolated Guinea Pig Left Atria; design: species or system guinea pig (male Hartley); details: Cavia porcellus, read-out: contractility of guinea pig left atria EC50
Protocol: Male Hartley guinea pigs weighing 350-500 g were used.
The hearts were excised from the animals. The left atria were dissected from the hearts and mounted in an organ bath.
The atria were stimulated by square wave pulses of 3 msec duration and a voltage ranging from 1.2-fold to 1.5-fold of the threshold at a frequency of 60/min with an electric stimulator.
Resting tension was adjusted to 0.5 g and contraction was recorded on the Polygraph Systems with a force-displacement transducer.
All preparations were allowed to equilibrate with the bath medium for 90 to 120 min.

[6] = test system: mice; assay: Acute Toxicity in mice, oral single dose; assay type: in vivo, mouse (male); details: male mice, 300 mg/kg, p.o., 7 days observation
Excerpt: The acute toxicity of the test compounds was studied in male mice after oral administration of a single dose.

[7] = 1 mM 3H-cAMP substrate, read-out: phosphodiesterase inhibition IC50 PDE-III
[8] = dose producing a 50% increase in LVdp/dtmax, anesthetized dogs
[9] = concentration causing a 50% increase in contractility, cumulative addition, 30° C.

Row | Structure (SMILES) | IC50 [1] [µM] | IC50 [2] [µM] | IC50 [3, 7] [µM] | ED50 [4, 8] [mg/kg] | % Changes in Heart rate ([4]; anesthetized dogs) [%] | % Changes in Blood pressure ([4]; anesthetized dogs) [%] | EC50 [5, 9] [µg/mL] | mortality (number of dead animals/number of treated animals) [6] | EC50 [5] [µg/mL] | IC50 [3] [µM] | ED50 [4] [mg/kg]
1 | O=C1C=C(Nc2ccc3c(c2)OCC2CC(=O)NN=C32)CC1 (stereo not shown) [Compound 24, 8-(3-oxo-1-cyclopentenylamino)-3,4,4a,5-tetrahydro-2H-(1)benzopyrano(4,3-c)-pyridazinon-3-one] | > 100 | 100 | 4.1 | 0.022 | 4 | -7 | – | – | – | – | –
2 | O=C1C=C(Nc2ccc(C3=NNC(=O)CC3)cc2)CCC1 [Compound 3] | 210 | 180 | 0.47 | 0.009 | 2 | -4 | 0.23 (≈ 0.812 µM) | 0/3 | – | – | –
3 | O=C1C=C(Nc2ccc3c(c2)CCC2CC(=O)NN=C32)CC1 (stereo not shown) [Compound 35] | > 100 | 49 | 1.6 | 0.023 | 3 | -4 | – | – | – | – | –
4 | CC1=C(Nc2ccc(C3=NNC(=O)CC3C)cc2)CCC1=O (stereo not shown) [Compound 15, 4,5-Dihydro-6-(4-((2-methyl-3-oxo-1-cyclopentenyl)amino)phenyl)-5-methyl-3(2H)-pyridazinone] | > 1000 | 940 | 0.59 | 0.012 | 19 | -18 | 0.054 (≈ 0.182 µM) | – | – | – | –
5 | CC1(C)CC(=O)C=C(Nc2ccc(C3=NNC(=O)CC3)cc2)C1 [Compound 1] | 900 | 250 | 1.2 | 0.043 | 5 | -1 | 0.23 (≈ 0.739 µM) | 0/3 | – | – | –
6 | O=C1CCC(c2ccc(-n3ccnc3)cc2)=NN1 [CI-914, reference compound] | > 1000 | – | 5.7 | 0.095 | 9 | -10 | 1.8 (≈ 7.49 µM) | 2/3 | – | – | –
7 | CC1CC(=O)NN=C1c1ccc(NC2=CC(=O)CC2)cc1 (stereo not shown) [Compound 14, 4,5-Dihydro-6-(4-((3-oxo-1-cyclopentenyl)amino)phenyl)-5-methyl-3(2H)-pyridazinone] | 310 | 260 | 0.88 | 0.008 | 13 | -11 | 0.12 (≈ 0.424 µM) | – | – | – | –
8 | CC1=C(Nc2ccc3c(c2)OCC2CC(=O)NN=C32)CCC1=O (stereo not shown) [Compound 26] | > 1000 | 100 | 2.3 | 0.03 | 8 | -6 | – | – | – | – | –
9 | O=C1C=C(Nc2ccc(C3=NNC(=O)CC3)cc2)CC1 [Compound 2, 4,5-Dihydro-6-((4-(3-oxo-1-cyclopentenyl)amino)phenyl)-3(2H)-pyridazinone] | 1000 | 235 | 1.2 | 0.006 | 6 | -2 | 0.11 (≈ 0.408 µM) | 0/3 | – | – | –
10 | CC1=C(Nc2ccc(C3=NNC(=O)CC3)cc2)CCC1=O [Compound 4, 4,5-Dihydro-6-(4-((2-methyl-3-oxo-1-cyclopentenyl)-amino)phenyl)-3(2H)-pyridazinone] | 610 | 330 | 2 | 0.012 | 5 | -2 | 0.24 (≈ 0.847 µM) | 1/3 | – | – | –
11 | Cc1[nH]c(=O)c(C#N)cc1-c1ccncc1 [Milrinone, milrinone, reference compound] | 151 | 142 | – | – | 6 | -6 | – | 3/3 | 0.43 (≈ 2.04 µM) | 2.8 | 0.023
